Test results published in the NIST ThermoML archive (doi:10.1016/j.jct.2018.02.018).

Columns and labels:
[1] = xn = mol fraction of the nth substance listed; details: 100 kPa, Liquid; for speed of sound: Frequency=3 MHz, Single path-length method; for mass density: Vibrating tube method
[2] = refractive index (Na D-line) (dimensionless); xn = mol fraction of the nth substance listed; details: 100 kPa, Liquid, Standard Abbe refractometry

CN(C)CCOCCO [2-(2-dimethylaminoethoxy)ethanol] + C[S+](C)[O-]
Details | mass density, [1] [kg/m3] | refractive index, [2] | speed of sound, [1] [m/s]
293.15 K, x2 = 0 | 954 | 1.442 | 1403.6
293.15 K, x2 = 0.0984 | 962 | 1.444 | 1410.5
293.15 K, x2 = 0.2001 | 971 | 1.447 | 1417.2
293.15 K, x2 = 0.2995 | 981 | 1.449 | 1423.8
293.15 K, x2 = 0.4021 | 992 | 1.452 | 1431
293.15 K, x2 = 0.4992 | 1003 | 1.455 | 1439.1
293.15 K, x2 = 0.6003 | 1017 | 1.458 | 1448.2
293.15 K, x2 = 0.7006 | 1033 | 1.462 | 1458.4
293.15 K, x2 = 0.795 | 1051 | 1.467 | 1470.1
293.15 K, x2 = 0.8997 | 1074 | 1.472 | 1485.1
293.15 K, x2 = 0.9505 | 1087 | 1.476 | 1494.1
303.15 K, x2 = 0 | 946 | 1.438 | 1369.9
303.15 K, x2 = 0.0984 | 954 | 1.44 | 1377.3
303.15 K, x2 = 0.2001 | 963 | 1.443 | 1384
303.15 K, x2 = 0.2995 | 972 | 1.445 | 1390.2
303.15 K, x2 = 0.4021 | 983 | 1.448 | 1397.7
303.15 K, x2 = 0.4992 | 995 | 1.451 | 1405.5
303.15 K, x2 = 0.6003 | 1008 | 1.454 | 1414.5
303.15 K, x2 = 0.7006 | 1024 | 1.458 | 1425.1
303.15 K, x2 = 0.795 | 1041 | 1.462 | 1436.6
303.15 K, x2 = 0.8997 | 1064 | 1.468 | 1451.1
303.15 K, x2 = 0.9505 | 1077 | 1.471 | 1460.6
313.15 K, x2 = 0 | 938 | 1.435 | 1336.8
313.15 K, x2 = 0.0984 | 946 | 1.437 | 1344.1
313.15 K, x2 = 0.2001 | 954 | 1.439 | 1350.8
313.15 K, x2 = 0.2995 | 964 | 1.441 | 1357.1
313.15 K, x2 = 0.4021 | 975 | 1.444 | 1364.6
313.15 K, x2 = 0.4992 | 986 | 1.447 | 1372.4
313.15 K, x2 = 0.6003 | 999 | 1.45 | 1381.3
313.15 K, x2 = 0.7006 | 1015 | 1.454 | 1391.4
313.15 K, x2 = 0.795 | 1032 | 1.458 | 1403.2
313.15 K, x2 = 0.8997 | 1054 | 1.464 | 1417.6
313.15 K, x2 = 0.9505 | 1067 | 1.467 | 1427
323.15 K, x2 = 0 | 930 | 1.431 | 1303.9
323.15 K, x2 = 0.0984 | 937 | 1.433 | 1311.2
323.15 K, x2 = 0.2001 | 946 | 1.435 | 1318
323.15 K, x2 = 0.2995 | 955 | 1.437 | 1324.2
323.15 K, x2 = 0.4021 | 966 | 1.439 | 1331.8
323.15 K, x2 = 0.4992 | 977 | 1.442 | 1339.5
323.15 K, x2 = 0.6003 | 991 | 1.446 | 1348.4
323.15 K, x2 = 0.7006 | 1006 | 1.45 | 1358.4
323.15 K, x2 = 0.795 | 1023 | 1.454 | 1370.1
323.15 K, x2 = 0.8997 | 1045 | 1.459 | 1384.4
323.15 K, x2 = 0.9505 | 1057 | 1.461 | 1393.6

NCCO [2-aminoethan-1-ol] + C[S+](C)[O-]
Details | mass density, [1] [kg/m3] | refractive index, [2] | speed of sound, [1] [m/s]
293.15 K, x2 = 0 | 1016 | 1.455 | 1734.2
293.15 K, x2 = 0.1026 | 1026 | 1.457 | 1701.8
293.15 K, x2 = 0.2008 | 1035 | 1.46 | 1672.3
293.15 K, x2 = 0.2981 | 1043 | 1.462 | 1645.9
293.15 K, x2 = 0.3966 | 1051 | 1.465 | 1619.8
293.15 K, x2 = 0.4933 | 1059 | 1.467 | 1595.4
293.15 K, x2 = 0.6021 | 1068 | 1.469 | 1571.2
293.15 K, x2 = 0.6969 | 1076 | 1.472 | 1550.6
293.15 K, x2 = 0.7998 | 1083 | 1.474 | 1533.3
293.15 K, x2 = 0.9005 | 1092 | 1.476 | 1517.8
303.15 K, x2 = 0 | 1008 | 1.451 | 1702.2
303.15 K, x2 = 0.1026 | 1017 | 1.454 | 1669.2
303.15 K, x2 = 0.2008 | 1026 | 1.455 | 1639.1
303.15 K, x2 = 0.2981 | 1034 | 1.458 | 1611.9
303.15 K, x2 = 0.3966 | 1042 | 1.46 | 1585.5
303.15 K, x2 = 0.4933 | 1050 | 1.463 | 1561.2
303.15 K, x2 = 0.6021 | 1058 | 1.465 | 1537
303.15 K, x2 = 0.6969 | 1066 | 1.467 | 1516.6
303.15 K, x2 = 0.7998 | 1074 | 1.469 | 1499
303.15 K, x2 = 0.9005 | 1082 | 1.472 | 1484
313.15 K, x2 = 0 | 1000 | 1.447 | 1669.4
313.15 K, x2 = 0.1026 | 1009 | 1.45 | 1636.3
313.15 K, x2 = 0.2008 | 1017 | 1.452 | 1605.3
313.15 K, x2 = 0.2981 | 1025 | 1.454 | 1578.3
313.15 K, x2 = 0.3966 | 1033 | 1.456 | 1551.7
313.15 K, x2 = 0.4933 | 1041 | 1.458 | 1527.2
313.15 K, x2 = 0.6021 | 1049 | 1.461 | 1503
313.15 K, x2 = 0.6969 | 1057 | 1.463 | 1483.1
313.15 K, x2 = 0.7998 | 1064 | 1.465 | 1465.2
313.15 K, x2 = 0.9005 | 1072 | 1.468 | 1449.9
323.15 K, x2 = 0 | 992 | 1.443 | 1637.3
323.15 K, x2 = 0.1026 | 1001 | 1.446 | 1603.2
323.15 K, x2 = 0.2008 | 1009 | 1.449 | 1571.9
323.15 K, x2 = 0.2981 | 1017 | 1.45 | 1544.7
323.15 K, x2 = 0.3966 | 1024 | 1.452 | 1517.9
323.15 K, x2 = 0.4933 | 1031 | 1.454 | 1493.4
323.15 K, x2 = 0.6021 | 1039 | 1.457 | 1469.3
323.15 K, x2 = 0.6969 | 1047 | 1.459 | 1449.4
323.15 K, x2 = 0.7998 | 1054 | 1.461 | 1431.7
323.15 K, x2 = 0.9005 | 1062 | 1.463 | 1416.4
